Source: patent publication US10934310B2, “Inhibitors of Bruton's tyrosine kinase and method of their use” (JANSSEN PHARMACEUTICA NV, priority 2015, dated 2021)

These compounds were tested against unphosphorylated-BTK kinase domain (UP-BTK), GST-tagged human BTK (389-659aa) (Homo sapiens (Human), UniProt Q06187) (assay: BTK Kinase Lanthascreen Binding Assay). Conditions: Lanthascreen binding, 60 minutes incubation; pIC50 = negative log of the IC50 in molar.
Chain of unphosphorylated-BTK kinase domain (UP-BTK), GST-tagged human BTK (389-659aa) (Q06187 389-659): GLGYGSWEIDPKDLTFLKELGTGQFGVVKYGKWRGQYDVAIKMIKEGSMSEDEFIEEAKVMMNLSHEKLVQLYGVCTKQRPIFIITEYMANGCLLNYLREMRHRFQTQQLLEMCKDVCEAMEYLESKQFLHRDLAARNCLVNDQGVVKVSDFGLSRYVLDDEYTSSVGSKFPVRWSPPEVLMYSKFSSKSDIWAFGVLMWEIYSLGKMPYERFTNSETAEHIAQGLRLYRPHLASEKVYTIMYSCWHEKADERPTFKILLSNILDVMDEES
Description: BTK Kinase Lanthascreen Binding Assay:
A BTK kinase lanthascreen binding assay monitors compound binding to unphosphorylated-BTK kinase domain (UP-BTK), by competing with a fluorescent labeled tracer. […] Data were analyzed using Xlfit™ version 5.3 from ID Business Solutions (Guildford), Microsoft Excel add-in. pIC50 refers to the negative log of the IC50 in molar.
C=CC(=O)N[C@H]1CCC[C@H]1NC(=O)c1sc2nccc3c2c1NC(=O)N3c1ccc(Oc2ccc(C)nc2)cc1C [Example 384, N-((1R,2S)-2-Acrylamidocyclopentyl)-5-(2-methyl-4-((6-methylpyridin-3-yl)oxy)phenyl)-4-oxo-4,5-dihydro-3H-1-thia-3,5,8-triazaacenaphthylene-2-carboxamide] was tested, and the “BTK_I_binding pIC50” value was 7.54. In the case of C=CC(=O)N[C@H]1CCC[C@H]1NC(=O)c1sc2nccc3c2c1NC(=O)N3c1ccc(O[C@@H]2CCOC2)cc1C [Example 386, N-((1R,2S)-2-Acrylamidocyclopentyl)-5-(2-methyl-4-(((R)-tetrahydrofuran-3-yl)oxy)phenyl)-4-oxo-4,5-dihydro-3H-1-thia-3,5,8-triazaacenaphthylene-2-carboxamide], the “BTK_I_binding pIC50” value is reported as 7.09. In the case of C=CC(=O)N[C@H]1CCC[C@H]1NC(=O)c1sc2nccc3c2c1NC(=O)N3c1ccc(Oc2cccnn2)cc1 [Example 387, N-((1R,2S)-2-Acrylamidocyclopentyl)-4-oxo-5-(4-(pyridazin-3-yloxy)phenyl)-4,5-dihydro-3H-1-thia-3,5,8-triazaacenaphthylene-2-carboxamide], the “BTK_I_binding pIC50” value is reported as 7.16. O=C(N[C@@H]1CCC[C@H]1O)c1sc2nccc3c2c1NC(=O)N3c1ccc(Oc2ccccc2)cc1 [Example 393, N-((1R,2R)-2-Hydroxycyclopentyl)-4-oxo-5-(4-phenoxyphenyl)-4,5-dihydro-3H-1-thia-3,5,8-triazaacenaphthylene-2-carboxamide] was tested, and the “BTK_I_binding pIC50” value was 6.74. For CC(=O)N[C@H]1CCC[C@H]1NC(=O)c1sc2nccc3c2c1NC(=O)N3c1ccc(Oc2ccccc2)cc1 [Example 396, N-((1R,2S)-2-Acetamidocyclopentyl)-4-oxo-5-(4-phenoxyphenyl)-4,5-dihydro-3H-1-thia-3,5,8-triazaacenaphthylene-2-carboxamide], the “BTK_I_binding pIC50” value was 6.66. CCC(=O)N[C@H]1CCC[C@H]1NC(=O)c1sc2nccc3c2c1NC(=O)N3c1ccc(Oc2ccccc2)cc1 [Example 398, 4-Oxo-5-(4-phenoxyphenyl)-N-((1R,2S)-2-propionamidocyclopentyl)-4,5-dihydro-3H-1-thia-3,5,8-triazaacenaphthylene-2-carboxamide] was tested, and the “BTK_I_binding pIC50” value was 6.56. C=CC(=O)N[C@H]1CCCC[C@H]1NC(=O)c1sc2nccc3c2c1NC(=O)N3c1ccc(Oc2ccccn2)cc1C [Example 401, N-((1R,2S)-2-Acrylamidocyclohexyl)-5-(2-methyl-4-(pyridin-2-yloxy)phenyl)-4-oxo-4,5-dihydro-3H-1-thia-3,5,8-triazaacenaphthylene-2-carboxamide] was tested, and the “BTK_I_binding pIC50” value was 6.39. C=CC(=O)N[C@H]1CCCC[C@H]1NC(=O)c1sc2nccc3c2c1NC(=O)N3c1ccc(Oc2cccnn2)cc1C [Example 406, N-((1R,2S)-2-Acrylamidocyclohexyl)-5-(2-methyl-4-(pyridazin-3-yloxy)phenyl)-4-oxo-4,5-dihydro-3H-1-thia-3,5,8-triazaacenaphthylene-2-carboxamide] was tested, and the “BTK_I_binding pIC50” value was 6.13. With CN[C@H]1CCN(C(=O)c2sc3nccc4c3c2NC(=O)N4c2ccc(Oc3ccccc3)cc2C)C1 [Example 417, (S)-5-(2-Methyl-4-phenoxyphenyl)-2-(3-(methylamino)pyrrolidine-1-carbonyl)-3H-1-thia-3,5,8-triazaacenaphthylen-4(5H)-one] the “BTK_I_binding pIC50” value was 5.89. With CCC(=O)N[C@H]1CCN(C(=O)c2sc3nccc4c3c2NC(=O)N4c2ccc(Oc3ccccc3)cc2C)C1 [Example 418, (S)—N-(1-(5-(2-Methyl-4-phenoxyphenyl)-4-oxo-4,5-dihydro-3H-1-thia-3,5,8-triazaacenaphthylene-2-carbonyl)pyrrolidin-3-yl)propionamide] the “BTK_I_binding pIC50” value was 5.80. For CC(=O)N[C@H]1CCN(C(=O)c2sc3nccc4c3c2NC(=O)N4c2ccc(Oc3ccccc3)cc2C)C1 [Example 419, (S)—N-(1-(5-(2-Methyl-4-phenoxyphenyl)-4-oxo-4,5-dihydro-3H-1-thia-3,5,8-triazaacenaphthylene-2-carbonyl)pyrrolidin-3-yl)acetamide], the “BTK_I_binding pIC50” value was 5.79. In the case of Cc1cc(Oc2ccccc2)ccc1N1C(=O)Nc2c(C(=O)N3CC[C@H](N)C3)sc3nccc1c23 [Example 420, (S)-2-(3-Aminopyrrolidine-1-carbonyl)-5-(2-methyl-4-phenoxyphenyl)-3H-1-thia-3,5,8-triazaacenaphthylen-4(5H)-one], the “BTK_I_binding pIC50” value is reported as 5.73. For Cc1cc(Oc2ccccc2)ccc1N1C(=O)Nc2c(C(=O)N3CC[C@H](N(C)C)C3)sc3nccc1c23 [Example 421, (S)-2-(3-(Dimethylamino)pyrrolidine-1-carbonyl)-5-(2-methyl-4-phenoxyphenyl)-3H-1-thia-3,5,8-triazaacenaphthylen-4(5H)-one], the “BTK_I_binding pIC50” value was 5.66. CC(=O)N[C@H]1CC[C@H](NC(=O)c2sc3nccc4c3c2NC(=O)N4c2cnc(Oc3ccccc3)cc2C)CC1 [Example 432, N-((1r,4r)-4-Acetamidocyclohexyl)-5-(*S)-(4-methyl-6-phenoxypyridin-3-yl)-4-oxo-4,5-dihydro-3H-1-thia-3,5,8-triazaacenaphthylene-2-carboxamide] was tested, and the “BTK_I_binding pIC50” value was 7.45. For C=CC(=O)N[C@H]1CCN(C(=O)c2sc3nccc4c3c2NC(=O)N4c2ccc(Oc3ccccc3)cc2C)C1 [Example 433, (S)—N-(1-(5-(2-Methyl-4-phenoxyphenyl)-4-oxo-4,5-dihydro-3H-1-thia-3,5,8-triazaacenaphthylene-2-carbonyl)pyrrolidin-3-yl)acrylamide], the “BTK_I_binding pIC50” value was 7.01. C=CC(=O)N[C@@H]1CCN(C(=O)c2sc3nccc4c3c2NC(=O)N4c2ccc(Oc3ccccc3)cc2C)C1 [Example 434, (R)—N-(1-(5-(2-Methyl-4-phenoxyphenyl)-4-oxo-4,5-dihydro-3H-1-thia-3,5,8-triazaacenaphthylene-2-carbonyl)pyrrolidin-3-yl)acrylamide] was tested, and the “BTK_I_binding pIC50” value was 6.29. In the case of Cc1cc(Oc2ccccc2)ccc1N1C(=O)Nc2c(C(=O)N3CC[C@H](NC(=O)/C(C#N)=C/C4CC4)C3)sc3nccc1c23 [Example 435, (S,E)-2-Cyano-3-cyclopropyl-N-(1-(5-(2-methyl-4-phenoxyphenyl)-4-oxo-4,5-dihydro-3H-1-thia-3,5,8-triazaacenaphthylene-2-carbonyl)pyrrolidin-3-yl)acrylamide], the “BTK_I_binding pIC50” value is reported as 6.15. Cc1cc(Oc2ccccc2)ccc1N1C(=O)Nc2c(C(=O)N3CC[C@@H](NC(=O)/C(C#N)=C/C4CC4)C3)sc3nccc1c23 [Example 436, (R,E)-2-Cyano-3-cyclopropyl-N-(1-(5-(2-methyl-4-phenoxyphenyl)-4-oxo-4,5-dihydro-3H-1-thia-3,5,8-triazaacenaphthylene-2-carbonyl)pyrrolidin-3-yl)acrylamide] was tested, and the “BTK_I_binding pIC50” value was 6.09. C=CC(=O)N[C@H]1CCC[C@H]1NC(=O)c1sc2nccc3c2c1NC(=O)N3c1ccc(Oc2ccccn2)cc1 [Example 437, N-((1R,2S)-2-Acrylamidocyclopentyl)-4-oxo-5-(4-(pyridin-2-yloxy)phenyl)-4,5-dihydro-3H-1-thia-3,5,8-triazaacenaphthylene-2-carboxamide] was tested, and the “BTK_I_binding pIC50” value was 8.38.

Same assay, conditions: read-out: BTK_I_binding pIC50 (converted)
For C=CC(=O)N[C@H]1CCCC[C@H]1NC(=O)c1sc2nccc3c2c1NC(=O)N3c1ccc(Oc2cccnn2)cc1 [Example 408, N-((1R,2S)-2-Acrylamidocyclohexyl)-4-oxo-5-(4-(pyridazin-3-yloxy)phenyl)-4,5-dihydro-3H-1-thia-3,5,8-triazaacenaphthylene-2-carboxamide], the IC50 was over 1 µM.
